In general, IC50 refers to the concentration that gives 50% inhibition.

One test concerns the target T1, catalytic domain of human collagenase 3 (MMP-13) (Homo sapiens, UniProt P45452).
T1 construct: Determining the enzyme activity of the catalytic domain of human collagenase 3 (MMP-13); purchased INVITEK, Berlin 30 100 803
Description: Enzyme activity of the catalytic domain of human collagenase 3 (MMP-13), fluorogenic substrate. In kind it is biochemical. The settings on record: determined graphically from % inhibition, read-out: IC50 MMP13. On the procedure:
Determining the enzyme activity of the catalytic domain of human collagenase 3 (MMP-13).
Activating the proenzyme:
2 parts by volume of proenzyme are incubated with 1 part by volume of APMA solution at 37° C. for 1.5 hours. The APMA solution is prepared from a 10 mmol/l solution of p-aminophenylmercuric acetate in […] by diluting with 3 parts by volume of tris/HCl buffer, pH 7.5 (see below). The pH is adjusted to between 7.0 and 7.5 by adding 1 mmol/I HCl. After the enzyme has been activated, it is diluted to a concentration of 1.67 μg/ml using the tris/HCl buffer.
In order to measure the enzyme activity, 10 μl of enzyme solution are incubated for 15 minutes with 10 μl of a 3% (v/v) buffered solution of dimethyl sulfoxide (reaction 1). In order to measure the enzyme inhibitor activity, 10 μl of enzyme solution are incubated with 10 μl of a 3% (v/v) buffered solution of dimethyl sulfoxide containing the enzyme inhibitor (reaction 2).
In the case of both reaction 1 and reaction 2, the enzyme reaction is monitored by fluorescence spectroscopy (328 nm (extinction)/393 nm (emission)) after adding 10 μl of a 3% (v/v) aqueous solution of dimethyl sulfoxide containing 0.75 mmol of the substrate/l.
The enzyme activity is depicted as increase in extinction/minute.
The effect of the inhibitor is calculated as a percentage inhibition using the following formula: % inhibition=100−[(increase in extinction/minute in reaction 2)/(increase in extinction/minute in reaction 1)×100].
The IC50, i.e., the inhibitor concentration that is required for inhibiting the enzyme activity by 50%, is determined graphically by plotting the percentage inhibitions at different inhibitor concentrations.
The buffer solution contains 0.05% Brij (Sigma, Deisenhofen, Germany) and 0.1 mol of tris/HCl/l, 0.1 mol of NaCl/l and 0.01 mol of CaCl2/l (pH=7.5). The enzyme solution contains 1.67 μg of the enzyme domain/ml. The substrate solution contains 0.75 mmol/l of the fluorogenic substrate (7-methoxycoumarin4-yl)acetyl-Pro-Leu-Gly-Leu-3-(2′,4′-dinitrophenyl)-L-2,3-diaminopropionyl-Ala-Arg-NH2 (Bachem, Heidelberg, Germany).
For `COc1cc(CNC(=O)c2cc(C(=O)NCc3ccc(F)c(Cl)c3)ncn2)ccn1` [Example 20], the IC50 was found to be 50 nM.
Still for that read-out and setting: as for `COc1cc(CNC(=O)c2cc(C(=O)NCc3ccc(F)c(Br)c3)ncn2)ccn1` [Example 11], the figure is 30 nM; as for `COc1cccc(CNC(=O)c2cc(C(=O)NCc3ccc(C)s3)ncn2)c1` [Example 4], 24 nM.
Still for that read-out and setting: as for `Cc1cc(CNC(=O)c2cc(C(=O)NCc3sccc3C)ncn2)ccc1F` [Example 35], the figure is 200 nM; as for `Cc1cc(CNC(=O)c2cc(C(=O)NCc3ccc(OCC(=O)OC(C)(C)C)cc3)ncn2)ccc1F` [Example 1, tert-Butyl [4-({[6-(4-fluoro-3-methylbenzylcarbamoyl)pyrimidine-4-carbonyl]amino}methyl)phenoxy]acetate], 12 nM.
The same measure, in the same setting: as for `Cc1cc(CNC(=O)c2cc(C(=O)NCc3ccc(OCC(=O)O)cc3)ncn2)ccc1F` [Example 2, [4-({[6-(4-Fluoro-3-methylbenzylcarbamoyl)pyrimidine-4-carbonyl]-amino}methyl)phenoxy]acetic acid], the figure is 7 nM.
In the case of `O=C(NCCc1cccs1)c1cc(C(=O)NCc2ccc(F)c(Cl)c2)ncn1` [Example 28], the IC50 is 100 nM.
Still for that read-out and setting: as for `COc1cccc(CNC(=O)c2cc(C(=O)NCc3nccs3)ncn2)c1` [Example 44], the figure is 500 nM.

Another test addresses T2, prolyl 4-hydroxylase (Gallus gallus, UniProt P16924).
T2 construct: from tissue; host or cells: 14-day-old chick embryos (homogenate)
T2 sequence (P16924 1-516): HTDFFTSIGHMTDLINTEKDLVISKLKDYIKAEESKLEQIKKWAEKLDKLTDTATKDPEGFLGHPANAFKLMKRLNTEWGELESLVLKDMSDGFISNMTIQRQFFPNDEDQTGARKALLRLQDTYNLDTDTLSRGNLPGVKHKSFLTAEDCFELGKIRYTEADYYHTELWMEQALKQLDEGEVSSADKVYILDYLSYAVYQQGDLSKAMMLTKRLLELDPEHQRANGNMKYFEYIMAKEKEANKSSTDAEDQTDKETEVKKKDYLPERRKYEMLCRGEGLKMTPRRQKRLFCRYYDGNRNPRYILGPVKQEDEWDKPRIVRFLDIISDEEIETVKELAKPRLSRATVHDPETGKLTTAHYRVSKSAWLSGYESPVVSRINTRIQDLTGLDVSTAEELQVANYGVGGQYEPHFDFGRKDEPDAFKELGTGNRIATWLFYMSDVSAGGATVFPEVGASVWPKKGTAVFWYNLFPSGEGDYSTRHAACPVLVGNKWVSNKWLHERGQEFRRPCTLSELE
T2 sequence (P09102 23-515 partner): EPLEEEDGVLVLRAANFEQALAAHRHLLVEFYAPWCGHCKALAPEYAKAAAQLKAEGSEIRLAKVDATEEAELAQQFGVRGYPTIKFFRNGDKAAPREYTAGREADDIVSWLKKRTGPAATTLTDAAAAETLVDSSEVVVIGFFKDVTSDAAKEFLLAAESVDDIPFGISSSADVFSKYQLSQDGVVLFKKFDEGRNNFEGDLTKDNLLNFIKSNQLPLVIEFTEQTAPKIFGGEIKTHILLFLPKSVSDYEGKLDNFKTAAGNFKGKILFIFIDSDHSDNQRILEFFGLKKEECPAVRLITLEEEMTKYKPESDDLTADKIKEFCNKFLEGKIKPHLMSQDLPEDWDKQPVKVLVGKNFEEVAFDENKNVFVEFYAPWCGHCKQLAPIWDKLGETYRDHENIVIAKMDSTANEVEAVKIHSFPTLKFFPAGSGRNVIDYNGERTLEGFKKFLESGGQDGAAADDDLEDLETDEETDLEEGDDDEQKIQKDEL
In words: Prolyl hydroxylase inhibition (method of Majamaa, version of Kaule and Guenzler). In kind it is biochemical. The settings on record: enzyme from 14-day-old chick embryos; concentrations of from 0.1 μM to 1 mM. On the procedure:
Determining prolyl hydroxylase inhibition by the method of Majamaa Eur. J. Biochem. 138 (1984) 239-245 using the version of Kaule and guenzler Analytical Biochemistry 184 (1990) 291-297.
0.03 μg of prolyl 4-hydroxylase, which was prepared, by the method of Kedersa, Collagen Relat. Res. 1 (1981) 345-353, from homogenized 14-day-old chick embryos by ammonium sulfate precipitation and affinity chromatography on poly-L-proline-coupled Sepharose 4B and subsequent DEAE cellulose chromatography, was incubated, at 37° C. for one hour, in 0.05 ml of an 0.04 M tris-HCl solution (pH=7.5) containing 0.05 mM FeSO4, 0.1 mM 2-oxo-[5-C-14]glutarate (100,000 dpm), 20 μg (0.4 mg/ml) of (Pro-Pro-Gly)10 (Protein Research Foundation, Minoh, Osaka, Japan), 1 mM ascorbic acid, 0.4 mg of catalase/ml, 0.5 mM dithiothreitol and 2 mg of bovine serum albumin/ml, as well as the concentration of the inhibitor to be measured (the comparison experiment was carried out without any inhibitor). After that, 25 μl of a 20 mM succinate and 2-oxaglutarate solution, and also 25 μl of a 0.16 M 2,4-DNPH solution containing 30% HClO4, were added. After the mixture had been incubated at room temperature for a further 30 minutes, it was centrifuged at 3000 g for 5 minutes. The radioactivity of 100 μl of the supernatant was determined by liquid scintillation. Production of the [1-C-14] succinate was given in dpm. Unless otherwise indicated, all the chemicals and reagents were obtained from Sigma, Sigma D-82024 Taufkirchen.
The compounds tested in Table 3 were used at concentrations of from 0.1 μM to 1 mM. Where it was possible, the IC50 value was determined by graphic extrapolarization of the individual results. This value denotes the concentration of active inhibitors that led to 50% inhibition of the enzyme.
`O=C(NCc1ccncc1)c1cc(C(=O)NCc2ccc(F)c(Cl)c2)ncn1` [Example 14]: the “Prolyl hydroxylase IC50” value is “No inhibition”.
`O=C(NCc1ccc(F)c(Cl)c1)c1cc(C(=O)NCc2cccs2)ncn1` [Example 83]: the “Prolyl hydroxylase IC50” value was “No inhibition”.
On the same count and under the same terms, as for `COc1cccc(CNC(=O)c2cc(C(=O)NCc3cccc(OCCN(C)C)c3)ncn2)c1` [Example 69], the entry is “No inhibition”; as for `COc1cccc(CNC(=O)c2cc(C(=O)NCc3ccc(OCCCN(C)C)cc3)ncn2)c1` [Example 71], “No inhibition”.
On the same count and under the same terms, as for `COc1cccc(CNC(=O)c2cc(C(=O)NCc3ccc(OCCN(C)C)cc3)ncn2)c1` [Example 70], the entry is “No inhibition”.
The same measure, in the same setting: as for `O=C(NCc1ccc(OCCN2CCOCC2)cc1)c1cc(C(=O)NCc2ccc(F)c(Cl)c2)ncn1` [Example 72], the entry is “No inhibition”; as for `COc1cccc(CNC(=O)c2cc(C(=O)NCc3ccncc3)ncn2)c1` [Example 22], “No inhibition”.
Compound `O=C(O)c1cc(C(=O)O)ncn1` [Pyrimidine-4,6-dicarboxylic acid, reference compound] gave an IC50 of 1200 nM.
As to `Cc1ccc(CNC(=O)c2cc(C(=O)NCc3ccc(F)c(C)c3)ncn2)o1` [Example 84], the “Prolyl hydroxylase IC50” value is on record as “No inhibition”.
In the case of `Cc1cc(CNC(=O)c2cc(C(=O)NCc3cccs3)ncn2)ccc1F` [Example 7], the “Prolyl hydroxylase IC50” value is listed as “No inhibition”.

These data come from patent publication US20050004111A1, “Selective MMP-13 inhibitors” (AVENTIS PHARMA DEUTSCHLAND GMBH, priority 2003, published 2005).
